# Values joined by “and” are separate entries in the source; they are usually repeats but may differ in a detail not shown here. Identical values can stand only once.
# Columns and labels:
# sarcoma patients = assay: Clinical outcome of sarcoma patients treated with ET-743, matched with BRCA1, ERCC1 and XPD mRNA expression in tumor samples; assay type: in vivo, human; set-up: PFS6 rate (progression free survival higher than 6 months) / patients achieving progression free survival >=6 months (PFS6) / overall progression free survival at 6 months (Kaplan-Meier) / median survival at 12 months: concentration or dose not given beside the values
# Protocol: In this study, 61 paraffin embedded tumoral samples from sarcoma patients before the treatment with any chemotherapy agent have been evaluated.
# The majority of patients were treated before with one or several chemotherapy agents and later they followed a treatment with ET-743. The dosage of intravenous infusion ET-743 given to the different patients was within the range of 1.650-1.0 mg/m2; the schedules were 24 hours or 3 hour IV infusion with a three week interval between cycles; and the number of cycles ranged from 1 up to 25 cycles in some patients.
# The clinical data from the patients was collected in the clinical data collection form and matched with the molecular data after completion of the mRNA expression levels determination (Table 1).
# We examined XPD, ERCC1 and/or BRCA1 gene expression in formalin-fixed, paraffin-embedded tumor specimens from the 61 patients as previously described (Specht K. et al. Am J Pathol, 2001, 158, 419-429 and Krafft A E. et al. Mol Diagn. 1997, 3, 217-230). After standard tissue sample deparaffinisation using xylene and alcohols, samples were lysed in a tris-chloride, EDTA, sodium dodecyl sulphate (SDS) and proteinase K containing buffer. RNA was then extracted with phenol-chloroform-isoamyl alcohol followed by precipitation with isopropanol in the presence of glycogen and sodium acetate. RNA was resuspended in RNA storage solution (Ambion Inc; Austin Tex., USA) and treated with DNAse I to avoid DNA contamination. cDNA was synthesized using M-MLV retrotranscriptase enzyme. Template cDNA was added to Taqman Universal Master Mix (AB; Applied Biosystems, Foster City, Calif., USA) in a 20-μl reaction with specific primers and probe for each gene. The primer and probe sets were designed using Primer Express 2.0 Software (AB). Quantification of gene expression was performed using the ABI Prism 7900HT Sequence Detection System (AB). The primers and 5′ labeled fluorescent reporter dye (6FAM) probe were as follows: β-actin: forward 5′ TGA GCG CGG CTA CAG CTT 3′, reverse 5′ TCCTTAATGTCACGCACGATTT 3′, probe 5′ ACC ACC ACG GCC GAG CGG 3′; BRCA1: forward 5′ GGCTATCCTCTCAGAGTGACATTTTA 3′, reverse 5′ GCTTTATCAGGTTATGTTGCATGGT 3′, probe 5′ CCA CTC AGC AGA GGG 3′; ERCC1: forward 5′ GGGAATTTGGCGACGTAATTC 3′, reverse 5′ GCG GAG GCT GAG GAA CAG 3′, probe 5′CACAGGTGCTCTGGCCCAGCACATA 3′; XPD: forward 5′ GCTCCCGCAAAAACTTGTGT 3′, reverse 5′ CAT CGA CGT CCT TCC CAA A 3′, probe 5′ ACCCTGAGGTGACACCCCTGC 3′.
# Relative gene expression quantification was calculated according to the comparative Ct method using β-actin as an endogenous control and commercial RNA controls (Stratagene, La Jolla, Calif.) as calibrators. Final results, were determined as follows: 2^−(^Δ^Ct sample−^Δ^Ct calibrator), where ΔCT values of the calibrator and sample are determined by subtracting the […]. In all experiments, only triplicates with a standard deviation (SD) of the Ct value <0.20 were accepted. In addition, for each sample analyzed, a retrotranscriptase minus control was run in the same plate to assure lack of genomic DNA contamination.
# SAS v8.2 (statistical software) was used for all the statistical analysis. The statistical techniques for univariate, bivariate and multivariate variables were chosen, according with the nature of variables that will be analysed, i.e. when the dependent variable is a temporal variable with censor status the Cox regression would be applied, when correlation between variables will be computed the Pearson and/or Spearman measures would be used. P-values below 0.05 will be considered statistically significant in all tests, when appropriate 95% confidence intervals will be presented too.
# A total of 61 paraffin embedded tumor samples were evaluated. […] These samples came from sarcoma patients before being treated with a chemotherapy agent.
# [1] = test system: HCC1937 breast cancer cell line; conditions: wild-type BRCA1 reconstituted vs BRCA1-negative HCC1937; cited from earlier work
# [2] = BRCA1 mRNA <1.97 (low expression)
# [3] = BRCA1 mRNA >=1.97 (high expression)
# [4] = ERCC1 mRNA <5.86 (low expression)
# [5] = ERCC1 mRNA >=5.86 (high expression)
# [6] = Kaplan-Meier FIG. 2A, high BRCA1 expressers
# [7] = Kaplan-Meier FIG. 2A, high BRCA1 expression
# [8] = Kaplan-Meier FIG. 2A, low BRCA1 expression
# [9] = Kaplan-Meier FIG. 2B, high ERCC1 expression
# [10] = Kaplan-Meier FIG. 2B, low ERCC1 expression
# [11] = Kaplan-Meier FIG. 2C (XPD), high expression
# [12] = Kaplan-Meier FIG. 2C (XPD), low expression
# [13] = XPD mRNA <1.99 (low expression)
# [14] = XPD mRNA >=1.99 (high expression)
smiles,measurement,setting,value
"COc1cc2c(cc1O)CCN[C@]21CS[C@@H]2c3c(OC(C)=O)c(C)c4c(c3[C@H](COC1=O)N1[C@@H]2[C@H]2c3c(cc(C)c(OC)c3O)C[C@@H]([C@@H]1O)N2C)OCO4 [ET-743, ecteinascidin 743]","increase in objective response, low BRCA1 subpopulation vs full cohort",sarcoma patients; 16% to 21%,1.3 fold
same,"increase in PFS6 rate, low BRCA1 subpopulation vs full cohort",sarcoma patients; 24% to 38%,1.6 fold
same,"overall response rate (RR), PR + Minor Responses",sarcoma patients; 55 evaluable patients,16%
same,"overall response rate (RR), only Partial Responses",sarcoma patients; 55 evaluable patients,15%
same,patients achieving progression free survival >=6 months (PFS6),"sarcoma patients; 55 evaluable patients, (8 PR+1 MR+6 SD)/55",27%
same,PD (number of patients),"sarcoma patients; BRCA1 cohort, Total",30
same,PFS <6 (number of patients),"sarcoma patients; BRCA1 cohort, Total",38
same,PFS >=6 (number of patients),"sarcoma patients; BRCA1 cohort, Total",12
same,PR + MR (number of patients),"sarcoma patients; BRCA1 cohort, Total",8
same,PD (number of patients),sarcoma patients; BRCA1 mRNA <1.97,12
same,PFS <6 (number of patients),sarcoma patients; BRCA1 mRNA <1.97,16
same,PFS >=6 (number of patients),sarcoma patients; BRCA1 mRNA <1.97,9
same,PR + MR (number of patients),sarcoma patients; BRCA1 mRNA <1.97,5
same,objective response (PR+MR),sarcoma patients; [2],21%
same,patients reaching PFS6 (PFS >=6 months),sarcoma patients; [2],38% and 36%
same,PD (number of patients),sarcoma patients; BRCA1 mRNA >=1.97,18
same,PFS <6 (number of patients),sarcoma patients; BRCA1 mRNA >=1.97,22
same,PFS >=6 (number of patients),sarcoma patients; BRCA1 mRNA >=1.97,3
same,PR + MR (number of patients),sarcoma patients; BRCA1 mRNA >=1.97,3
same,objective response (PR+MR),sarcoma patients; [3],11%
same,patients reaching PFS6 (PFS >=6 months),sarcoma patients; [3],12%
same,PD (number of patients),"sarcoma patients; ERCC1 cohort, Total",22
same,PFS <6 (number of patients),"sarcoma patients; ERCC1 cohort, Total",29
same,PR + MR (number of patients),"sarcoma patients; ERCC1 cohort, Total",6
same,PD (number of patients),sarcoma patients; ERCC1 mRNA <5.86,12
same,PFS <6 (number of patients),sarcoma patients; ERCC1 mRNA <5.86,16
same,PFS >=6 (number of patients),sarcoma patients; ERCC1 mRNA <5.86,3
same,PR + MR (number of patients),sarcoma patients; ERCC1 mRNA <5.86,2
same,objective response (PR+MR),sarcoma patients; [4],11%
same,patients reaching PFS6 (PFS >=6 months),sarcoma patients; [4],16%
same,PD (number of patients),sarcoma patients; ERCC1 mRNA >=5.86,10
same,PFS <6 (number of patients),sarcoma patients; ERCC1 mRNA >=5.86,13
same,PFS >=6 (number of patients),sarcoma patients; ERCC1 mRNA >=5.86,6
same,PR + MR (number of patients),sarcoma patients; ERCC1 mRNA >=5.86,4
same,objective response (PR+MR),sarcoma patients; [5],21%
same,patients reaching PFS6 (PFS >=6 months),sarcoma patients; [5],32%
same,PFS (median),sarcoma patients; [6],1.5 months
same,median survival,sarcoma patients; [6],5.4 months
same,median survival at 12 months,sarcoma patients; [7],35.71%
same,percentage of patients with PFS6,sarcoma patients; [7],11.54%
same,PFS (median),sarcoma patients; [8],2.3 months
same,median survival,sarcoma patients; [8],11.7 months
same,median survival at 12 months,sarcoma patients; [8],42.23%
same,percentage of patients with PFS6,sarcoma patients; [8],41.67%
same,median survival,"sarcoma patients; Kaplan-Meier FIG. 2B, high ERCC1 expressers",19.4 months
same,PFS6,sarcoma patients; [9],31.58%
same,median PFS,sarcoma patients; [9],2.2 months
same,PFS6,sarcoma patients; [10],21.05%
same,median PFS,sarcoma patients; [10],1.4 months
same,median survival,sarcoma patients; [10],16.8 months
same,PFS6,sarcoma patients; [11],30%
same,median PFS,sarcoma patients; [11],2.0 months
same,median survival,sarcoma patients; [11],19.4 months
same,median survival,"sarcoma patients; Kaplan-Meier FIG. 2C (XPD), low expressers",16.8 months
same,PFS6,sarcoma patients; [12],17.65%
same,median PFS,sarcoma patients; [12],1.2 months
same,PD (number of patients),"sarcoma patients; XPD cohort, Total",22
same,PFS <6 (number of patients),"sarcoma patients; XPD cohort, Total",29
same,PFS >=6 (number of patients),"sarcoma patients; XPD cohort, Total",8
same,PR + MR (number of patients),"sarcoma patients; XPD cohort, Total",5
same,PD (number of patients),sarcoma patients; XPD mRNA <1.99,11
same,PFS <6 (number of patients),sarcoma patients; XPD mRNA <1.99,14
same,PFS >=6 (number of patients),sarcoma patients; XPD mRNA <1.99,3
same,PR + MR (number of patients),sarcoma patients; XPD mRNA <1.99,2
same,objective response (PR+MR),sarcoma patients; [13],12%
same,patients reaching PFS6 (PFS >=6 months),sarcoma patients; [13],18%
same,PD (number of patients),sarcoma patients; XPD mRNA >=1.99,11
same,PFS <6 (number of patients),sarcoma patients; XPD mRNA >=1.99,15
same,PFS >=6 (number of patients),sarcoma patients; XPD mRNA >=1.99,5
same,PR + MR (number of patients),sarcoma patients; XPD mRNA >=1.99,3
same,objective response (PR+MR),sarcoma patients; [14],15%
same,patients reaching PFS6 (PFS >=6 months),sarcoma patients; [14],25%
same,median duration of the response (PR+MR),sarcoma patients; all patients,13.6 months
same,range of duration of the response (PR+MR),sarcoma patients; all patients,44.1 to 3.8 months
same,range of survival,sarcoma patients; all patients,0.1-66.9 months
same,median survival,"sarcoma patients; all patients, 14 patients still censored",7.7 months
same,median survival (Kaplan-Meier),"sarcoma patients; all patients, FIG. 1",10.2 months
same,overall progression free survival at 6 months (Kaplan-Meier),"sarcoma patients; all patients, FIG. 1",27.65%
same,objective response (PR+MR),sarcoma patients; full cohort with BRCA1 data (8/51),16%
same,PFS6 rate (progression free survival higher than 6 months),sarcoma patients; full cohort with BRCA1 data (12/50),24%
N.N.[Cl][Pt][Cl] [cisplatin],increase in resistance,[1],20 fold

# Source: patent US20080293725A1, “Prognostic Molecular Markers” (priority 2004, published 2008)
